Data reported in patent US20020137929A1, “1 - (3-heterocyclylphenyl) isothiourea, -isourea, -guanidine and -amidine herbicidal agents” (Intellectual Property Department, BASF Aktiengesellschaft, priority 1998, published 2002).

Key:
AMBEL (Ragweed, Common) = experiment: Postemergence herbicidal evaluation; type: in vivo, Ambrosia artemisifolia; conditions: postemergence
Procedure, shortened: (§1)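 Seedlings grown about two weeks were sprayed at 40 psi with compound dispersed in 50/50 acetone/water plus 0.5% TWEEN 20, at about 0.0156 to 0.500 kg/ha. Plants were kept in the greenhouse and scored 4–5 weeks later on a 0–9 visual scale against untreated controls.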

CASOB (Sicklepod) [1] = experiment: Postemergence herbicidal evaluation; type: in vivo, Cassia obtusifolia; conditions: postemergence
Procedure, shortened: as §1

[2] = tested on: CHEAL (Lambsquarters, Common); experiment: Postemergence herbicidal evaluation; type: in vivo, Chenopodium album; conditions: postemergence
Procedure, shortened: as §1

GALAP (Galium) [3] = experiment: Postemergence herbicidal evaluation; type: in vivo, Galium aparine; conditions: postemergence
Procedure, shortened: as §1

ECHCG (Barnyardgrass) = experiment: Postemergence herbicidal evaluation; type: in vivo, Echinochloa crus-galli; conditions: postemergence
Procedure, shortened: as §1

SETVI (Foxtail, Green) = experiment: Postemergence herbicidal evaluation; type: in vivo, Setaria viridis; conditions: postemergence
Procedure, shortened: as §1

[4] = tested on: GLXMAW (Soybean, Williams); experiment: Postemergence herbicidal evaluation; type: in vivo, Glycine max, (L.) Merr. cv Williams; conditions: postemergence
Procedure, shortened: as §1

ORYSAT (Rice, Tebonnet) = experiment: Postemergence herbicidal evaluation; type: in vivo, Oryza sativa, (L.) Tebonnet; conditions: postemergence
Procedure, shortened: as §1

CASOB (Sicklepod) [5] = experiment: Preemergence herbicidal evaluation; type: in vivo, Cassia obtusifolia; conditions: rated 4-5 weeks after treatment
Procedure, shortened: (§2)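 Sown cups got a single aqueous acetone spray of test compound (roughly 0.0156–0.500 kg/ha) before seedlings emerged. Evaluation, 4–5 weeks on, used a 0–9 visual scale covering plant stand, vigor, size, malformation, chlorosis and general appearance compared with controls.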

GALAP (Galium) [6] = experiment: Preemergence herbicidal evaluation; type: in vivo, Galium aparine; conditions: rated 4-5 weeks after treatment
Procedure, shortened: as §2

ZEAMX (Corn, Field) = experiment: Preemergence herbicidal evaluation; type: in vivo, Zea mays; conditions: rated 4-5 weeks after treatment
Procedure, shortened: as §2

CYPIR (Rice Flatsedge) = experiment: Preemergence weed control under flooded paddy conditions; type: in vivo, Cyperus iria; conditions: rated 3-4 weeks after treatment
Procedure, shortened: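 Visual injury scored 0-9 against control three to four weeks post-treatment, greenhouse-grown. Application: acetone/water (50/50) solutions dosed directly into flood water (1.5-3 cm over silt loam, planted top 0.5 cm), roughly 0.0313 to 0.500 kg/ha active ingredient.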

CYPSE (Flatsedge) = experiment: as above; type: in vivo, Cyperus serotinus; conditions: rated 3-4 weeks after treatment
Procedure, shortened: (§3)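 Ratings on a 0-9 visual scale cover stand, vigor, malformation, size, chlorosis and overall appearance relative to a control, taken three to four weeks post-treatment. Application was into flood water over freshly sown silt loam at roughly 0.0313 to 0.500 kg/ha.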

[7] = tested on: SAGPY (Arrowhead (Pygmaea)); experiment: as above; type: in vivo, Sagittaria pygmaea; conditions: rated 3-4 weeks after treatment
Procedure, shortened: as §3

Cn1c(C(F)(F)F)cc(=O)n(-c2cc(N=C3SCC(=O)N3C3CCCC3)c(Cl)cc2F)c1=O [Compound 166, 3-{4-Chloro-5-[(3-cyclopentyl-4-oxo-2-thiazolidinylidene)amino]-2-fluorophenyl}-1-methyl-6-(trifluoromethyl)-2,4(1H,3H)-pyrimidinedione]
Herbicidal rating AMBEL (AMBEL (Ragweed, Common); rate 0.0156 kg/ha): 0.0
Herbicidal rating AMBEL (AMBEL (Ragweed, Common); rate 0.0313 kg/ha): 3.0
Herbicidal rating AMBEL (AMBEL (Ragweed, Common); rate 0.0625 kg/ha): 6.0
Herbicidal rating AMBEL (AMBEL (Ragweed, Common); rate 0.1250 kg/ha): 7.0
Herbicidal rating CASOB (CASOB (Sicklepod) [1]; rate 0.0156 kg/ha): 0.0
Herbicidal rating CASOB (CASOB (Sicklepod) [1]; rate 0.0313 kg/ha): 0.0
Herbicidal rating CASOB (CASOB (Sicklepod) [1]; rate 0.0625 kg/ha): 0.0
Herbicidal rating CASOB (CASOB (Sicklepod) [1]; rate 0.1250 kg/ha): 1.0
Herbicidal rating CHEAL ([2]; rate 0.0156 kg/ha): 0.0
Herbicidal rating CHEAL ([2]; rate 0.0313 kg/ha): 1.0
Herbicidal rating CHEAL ([2]; rate 0.0625 kg/ha): 4.0
Herbicidal rating CHEAL ([2]; rate 0.1250 kg/ha): 7.0
Herbicidal rating GALAP (GALAP (Galium) [3]; rate 0.0156 kg/ha): 0.0
Herbicidal rating GALAP (GALAP (Galium) [3]; rate 0.0313 kg/ha): 0.0
Herbicidal rating GALAP (GALAP (Galium) [3]; rate 0.0625 kg/ha): 0.0
Herbicidal rating GALAP (GALAP (Galium) [3]; rate 0.1250 kg/ha): 2.0
Herbicidal rating ECHCG (ECHCG (Barnyardgrass); rate 0.0156 kg/ha): 0.0
Herbicidal rating ECHCG (ECHCG (Barnyardgrass); rate 0.0313 kg/ha): 0.0
Herbicidal rating ECHCG (ECHCG (Barnyardgrass); rate 0.0625 kg/ha): 1.0
Herbicidal rating ECHCG (ECHCG (Barnyardgrass); rate 0.1250 kg/ha): 2.0
Herbicidal rating SETVI (SETVI (Foxtail, Green); rate 0.0156 kg/ha): 0.0
Herbicidal rating SETVI (SETVI (Foxtail, Green); rate 0.0313 kg/ha): 0.0
Herbicidal rating SETVI (SETVI (Foxtail, Green); rate 0.0625 kg/ha): 1.0
Herbicidal rating SETVI (SETVI (Foxtail, Green); rate 0.1250 kg/ha): 2.0
Herbicidal rating GLXMAW ([4]; rate 0.0156 kg/ha): 4.0
Herbicidal rating GLXMAW ([4]; rate 0.0313 kg/ha): 3.5
Herbicidal rating GLXMAW ([4]; rate 0.0625 kg/ha): 4.0
Herbicidal rating GLXMAW ([4]; rate 0.1250 kg/ha): 5.0
Herbicidal rating ORYSAT (ORYSAT (Rice, Tebonnet); rate 0.0156 kg/ha): 1.0
Herbicidal rating ORYSAT (ORYSAT (Rice, Tebonnet); rate 0.0313 kg/ha): 0.5
Herbicidal rating ORYSAT (ORYSAT (Rice, Tebonnet); rate 0.0625 kg/ha): 1.5
Herbicidal rating ORYSAT (ORYSAT (Rice, Tebonnet); rate 0.1250 kg/ha): 2.0
Preemergence herbicidal rating CASOB (CASOB (Sicklepod) [5]; 0.0156 kg/ha): 0.0
Preemergence herbicidal rating CASOB (CASOB (Sicklepod) [5]; 0.0313 kg/ha): 0.0
Preemergence herbicidal rating CASOB (CASOB (Sicklepod) [5]; 0.0625 kg/ha): 2.0
Preemergence herbicidal rating CASOB (CASOB (Sicklepod) [5]; 0.1250 kg/ha): 0.0
Preemergence herbicidal rating CASOB (CASOB (Sicklepod) [5]; 0.2500 kg/ha): 4.0
Preemergence herbicidal rating CASOB (CASOB (Sicklepod) [5]; 0.5000 kg/ha): 6.0
Preemergence herbicidal rating GALAP (GALAP (Galium) [6]; 0.0156 kg/ha): 0.0
Preemergence herbicidal rating GALAP (GALAP (Galium) [6]; 0.0313 kg/ha): 0.0
Preemergence herbicidal rating GALAP (GALAP (Galium) [6]; 0.0625 kg/ha): 2.0
Preemergence herbicidal rating GALAP (GALAP (Galium) [6]; 0.1250 kg/ha): 5.0
Preemergence herbicidal rating GALAP (GALAP (Galium) [6]; 0.2500 kg/ha): 7.0
Preemergence herbicidal rating GALAP (GALAP (Galium) [6]; 0.5000 kg/ha): 8.0
Preemergence herbicidal rating ZEAMX (ZEAMX (Corn, Field); 0.0156 kg/ha): 0.0
Preemergence herbicidal rating ZEAMX (ZEAMX (Corn, Field); 0.0313 kg/ha): 0.0
Preemergence herbicidal rating ZEAMX (ZEAMX (Corn, Field); 0.0625 kg/ha): 1.0
Preemergence herbicidal rating ZEAMX (ZEAMX (Corn, Field); 0.1250 kg/ha): 1.0
Preemergence herbicidal rating ZEAMX (ZEAMX (Corn, Field); 0.2500 kg/ha): 3.0
Preemergence herbicidal rating ZEAMX (ZEAMX (Corn, Field); 0.5000 kg/ha): 6.0
herbicidal effect rating, CYPIR (CYPIR (Rice Flatsedge); 0.0313 kg/ha): 2.0
herbicidal effect rating, CYPIR (CYPIR (Rice Flatsedge); 0.0625 kg/ha): 2.0
herbicidal effect rating, CYPIR (CYPIR (Rice Flatsedge); 0.1250 kg/ha): 6.0
herbicidal effect rating, CYPIR (CYPIR (Rice Flatsedge); 0.2500 kg/ha): 9.0
herbicidal effect rating, CYPSE (CYPSE (Flatsedge); 0.0313 kg/ha): 0.0
herbicidal effect rating, CYPSE (CYPSE (Flatsedge); 0.0625 kg/ha): 0.0
herbicidal effect rating, CYPSE (CYPSE (Flatsedge); 0.1250 kg/ha): 0.0
herbicidal effect rating, CYPSE (CYPSE (Flatsedge); 0.2500 kg/ha): 0.0
herbicidal effect rating, SAGPY ([7]; 0.0313 kg/ha): 2.0
herbicidal effect rating, SAGPY ([7]; 0.0625 kg/ha): 4.0
herbicidal effect rating, SAGPY ([7]; 0.1250 kg/ha): 5.0
herbicidal effect rating, SAGPY ([7]; 0.2500 kg/ha): 6.0
